Test results taken from patent US20240108753A1, “NUCLEIC ACID DELIVERY” (NUNTIUS THERAPEUTICS LIMITED, priority 2021, published 2024).

System: mice tissue
Test: In vivo luciferase DNA expression assays
Settings: intramuscular; DOTMA/DOPE w/w=1:1 to DNA; NP 20:1; 48 h
Experimental: Mice were injected with the dendrimers, lipid and DNA formulations, and tissues were isolated and snap-frozen for luciferase expression analysis 24 h and 48 h post intravenous and intramuscular injection respectively.
The tissues were homogenised with 1× reporter lysis buffer supplemented with Protease Inhibitors. Depending on the tissues, 1.5 to 3 times of the lysis buffer was used for the tissue homogenisation. Following the homogenisation, the lysates were centrifuged and the supernatants were used for assaying luciferase expression and protein content. The luciferase expression level was measured with a luminometer using a luciferase assay kit (Promega), following the manufacturer's instructions. The protein content was measured using a Biorad protein assay kit at 595 nm absorbance, following the manufacturer's instructions.
Mice were injected with the dendrimers, lipid and DNA formulation prepared for detection of luciferase expression post injection. Tissues were isolated and snap-frozen for luciferase expression analysis 24 h and 48 h post intravenous and intramuscular injection respectively.

(LR)8(KRL)4(KRL)2KGSC-NH2 [G1,2-RL, 3-LR]
luciferase expression in skeletal muscle, DNA delivery: capable of delivering DNA to skeletal muscle
